Results published in US10130677B2, “Antimicrobial peptide and uses thereof” (priority 2013, dated 2018).
Read-outs that look alike come from different tables or passages of the source.

Legend:
[1] = test system: stationary phase S. aureus JAR060131; assay type: cell-based, Staphylococcus aureus
Procedure: Bacteria were stored at −80° C. until use. Inoculi of mid log phase bacteria were prepared by incubating isolated bacterial colonies from blood agar plates in Tryptic Soy Broth (TSB) medium (Becton Dickinson, Le Pont de Clax, France) for 2.5 hours and then diluted to the concentration needed. Stationary phase S. aureus JAR060131 was obtained from 18-20 hour cultures.
To assess the antimicrobial activity of the peptides towards stationary phase bacteria, peptides were incubated under the conditions described above with 1×10^6 CFU/ml of stationary phase S. aureus JAR060131, obtained from 18-20 hour cultures.

S. aureus JAR060131 = assay type: cell-based, Staphylococcus aureus; conditions: for IC99.9: approx. 1 × 10^6 CFU/ml S. aureus JAR, within 2 hrs (Table 2)
Procedure: Polypeptides of the invention preferably have an in vitro IC99.9 of at most 150 μM after 2 hours at 37° C. against at least one microbial species in the presence of 50% plasma. Said IC99.9 is preferably determined in accordance with a method for determining the antimicrobial activity as described herein in the Examples. Said method described in the Examples for determining antimicrobial activity of microbes not associated with biofilm involves the mixing of 50 microL of a solution of a polypeptide in PBS with addition of human plasma at a final concentration of 50% and 20 microL of bacterial suspension with 5×10^6 CFU per mL of PBS in a well. After incubation of this mixture for 2 hours at 37° C. under shaking conditions, a sample is used for assessment of the bacterial counts. The lowest peptide concentration at which there is 99.9% of bacteria killed, is called the inhibitory concentration (IC) 99.9. Bacterial counts can be determined by manual CFU counting. For determining antibacterial activity for instance 1×10^6 CFU/ml bacteria are used, for determining antifungal activity for instance 1×10^5 cells/ml are used.
Peptides were incubated with 1×10^6 CFU/ml of a mid-logarithmic culture of S. aureus JAR060131, methicillin resistant S. aureus (MRSA) LUH14616, Staphylococcus epidermidis RP62a, and Pseudomonas aeruginosa PAO1 in PBS without or with addition of pooled human plasma (Sanquin, Amsterdam, the Netherlands) at a final concentration of 50%. Antimicrobial activity is expressed as the 99.9% lethal concentration (LC99.9), i.e., the lowest peptide concentration which killed ≥99.9% of bacteria after 2 hours of incubation at 37° C. under shaking conditions.

Ac-IGKEFKRIVERIKRFLRELVRPLR-NH2 [OP-145, JIGKEFKRIVERIKRFLRELVRPLRB, reference compound]
LC99.9 ([1]; 50% plasma, stationary suspension, mean of three experiments (Table 4)): >204.8 µM
LC99.9 ([1]; stationary phase JAR060131): 1.6 µM
IC99.9 (S. aureus JAR060131; 50% plasma): 204.8 µM
LC99.9 (S. aureus JAR060131; 50% plasma, mid-logarithmic culture, median of at least two experiments (Table 3)): 204.8 µM
LC99.9 (S. aureus JAR060131; JAR060131, 2 h): 1.6 µM
IC99.9 (S. aureus JAR060131; PBS): 1.6 µM
